From publication PMC3774728, “Identification of the Plant Compound Geraniin as a Novel Hsp90 Inhibitor” (PLoS ONE, 2013)
Where two headings read alike, the source gives them in different places. Each block holds one compound with its values, some of them ahead of it.

Experiments:
[1] = molecular target: T1, recombinant Hsp90α (Homo sapiens, UniProt P07900); test: Surface plasmon resonance binding to immobilized Hsp90α
T1 construct: purchased Assay Designs (Ann Arbor, MI, USA)
Experimental: SPR analyses were carried out according to our previously published procedures, [23]. Briefly, SPR analyses were performed using a Biacore 3000 optical biosensor equipped with research−grade CM5 sensor chips (GE Healthcare). Using this platform, two separate recombinant Hsp90α surfaces, a BSA surface and one unmodified reference surface were prepared for simultaneous analyses. Proteins (100 µg mL^−1 in 10 mM CH3COONa, pH 5.0) were immobilized on individual sensor chip surfaces at a flow rate of 5 µL min^−1 using standard amine−coupling protocols to obtain densities of 8–12 kRU. Polyphenols, as well as 17-AAG and hardwickiic acid (HA), were dissolved in 100% DMSO to obtain 4 mM solutions, and diluted 1∶200 (v/v) in PBS (10 mM NaH2PO4, 150 mM NaCl, pH 7.4) to a final DMSO concentration of 0.5%. […] Binding experiments were performed at 25°C, using a flow rate of 50 µL min^−1, with 60 s monitoring of association and 300 s monitoring of dissociation. Simple interactions were suitably fitted to a single−site bimolecular interaction model (A+B = AB), yielding a single K D. Sensorgram elaborations were performed using the BIAevaluation software provided by GE Healthcare.
Putative interactions of different plant-derived phenolic compounds with Hsp90α were evaluated by a SPR-based approach.

[2] = system: PBMC (human Peripheral Blood Mononuclear Cells); test: Cytotoxicity in PHA-stimulated proliferating PBMC; type: cell-based; details: 24 h, trypan blue, only at high doses
Experimental: To ensure logarithmic growth, cells were subcultured every two days. As control cells, human peripheral blood mononuclear cells (PBMC) were isolated from buffy coats of healthy donors (kindly provided by the Blood Center of the Hospital of Battipaglia, Salerno, Italy) by using standard Ficoll−Hypaque gradients. […] Proliferation of PBMC was induced by phytohemagglutinin (PHA) (10 µg mL^−1). […] Stock solutions of geraniin (50 mM in DMSO) and 17-AAG (10 mM in DMSO) were stored a −20°C in the dark and diluted just before addition to the sterile culture medium. In all the experiments, the final concentration of DMSO was 0.10% (v/v).
The number of viable cells was determined by using a [3–4,5-dimethyldiazol-2-yl]-2,5-diphenyl tetrazolium bromide (MTT, Sigma-Aldrich) conversion assay, according to the method described by Mosmann. Briefly, following the treatment, 25 µL of MTT (5 mg/mL in PBS) was added and the cells were incubated for additional 3 h at 37°C. Thereafter, cells were lysed and suspended with 100 µL of buffer containing 50% (v/v) N,N-dimethylformamide, 20% SDS (pH 4.5). The absorbance was measured with a microplate reader (Titertek multiskan MCC7340, LabSystems, Vienna, VA, USA) equipped with a 620 nm filter. Cell population growth inhibition was tested by cytometric counting (trypan blu exclusion).

[3] = system: PHA-stimulated proliferating PBMC; test: Hypodiploidy/necrosis by flow cytometry, PHA-stimulated PBMC; type: cell-based, human; details: untreated cells 1.5±0.8%
Experimental: Jurkat and HeLa (epithelial carcinoma) cells, obtained from Cell Bank in GMP-IST (Genova, Italy) were maintained in RPMI 1640 medium or Dulbecco’s modified Eagle medium (DMEM), respectively, supplemented with 10% (v/v) FBS, 2 mM L−glutamine and antibiotics (100 U mL^−1 penicillin, 100 µg mL^−1 streptomycin) purchased from Invitrogen (Carslbad, CA, USA), at 37°C in humidified atmosphere with 5% CO2. To ensure logarithmic growth, cells were subcultured every two days. As control cells, human peripheral blood mononuclear cells (PBMC) were isolated from buffy coats of healthy donors (kindly provided by the Blood Center of the Hospital of Battipaglia, Salerno, Italy) by using standard Ficoll−Hypaque gradients. Freshly isolated PBMC contained 92.8±3.1% live cells. Proliferation of PBMC was induced by phytohemagglutinin (PHA) (10 µg mL^−1). […]
Cell DNA content was measured by propidium iodide (PI) incorporation into permeabilized cells, as described by Nicoletti et al.. […] The percentage of cells in the sub G0/G1 phase, apoptotic fraction, was quantified using CellQuest software (Becton Dickinson). The distribution of cells in G0/G1, S, G2/M phases was determined using ModFit LT cell cycle analysis software (Becton Dickinson). Results were expressed as a mean ± SD of three experiments performed in triplicate.

[4] = system: Jurkat cells; test: MTT cell viability, Jurkat; type: cell-based, human; details: 24 h
Experimental: (§1) To ensure logarithmic growth, cells were subcultured every two days. As control cells, human peripheral blood mononuclear cells (PBMC) were isolated from buffy coats of healthy donors (kindly provided by the Blood Center of the Hospital of Battipaglia, Salerno, Italy) by using standard Ficoll−Hypaque gradients. […] Proliferation of PBMC was induced by phytohemagglutinin (PHA) (10 µg mL^−1). Tumor and PBMC cells were treated with different concentrations of geraniin or 17-AAG to evaluate their cytotoxic effects. Stock solutions of geraniin (50 mM in DMSO) and 17-AAG (10 mM in DMSO) were stored a −20°C in the dark and diluted just before addition to the sterile culture medium. In all the experiments, the final concentration of DMSO was 0.10% (v/v).
(§2) Jurkat (2×10^4/well) and HeLa (5000/well) cells were seeded in triplicate in 96 well−plates and incubated for 24 h in the absence or presence of different concentrations of geraniin (between 0,5 µM to 50 µM) or 17-AAG (between 0,5 nM to 10 µM).
(§3) The number of viable cells was determined by using a [3–4,5-dimethyldiazol-2-yl]-2,5-diphenyl tetrazolium bromide (MTT, Sigma-Aldrich) conversion assay, according to the method described by Mosmann. […] The absorbance was measured with a microplate reader (Titertek multiskan MCC7340, LabSystems, Vienna, VA, USA) equipped with a 620 nm filter. […]

[5] = system: HeLa cells; test: Cell cycle and hypodiploidy by flow cytometry (PI), HeLa; type: cell-based, human; details: 24 h, geraniin 5 µM, 17-AAG 0.2 µM
Experimental: (§4) Cell DNA content was measured by propidium iodide (PI) incorporation into permeabilized cells, as described by Nicoletti et al.. Briefly, the cells were harvested after geraniin or 17-AAG treatments were washed with cold PBS and incubated with a PI solution (0.1% sodium citrate, 0.1% Triton X-100 and 50 µg mL^−1 of prodium iodide, Sigma-Aldrich, 10 µg/ml Rnase A) for 30 min at room temperature. Data from 10.000 events per sample were collected by a FACScalibur flow cytometer (Becton Dickinson, San José, CA) and cellular debris was excluded from analysis by raising the forward scatter threshold. The percentage of cells in the sub G0/G1 phase, apoptotic fraction, was quantified using CellQuest software (Becton Dickinson). The distribution of cells in G0/G1, S, G2/M phases was determined using ModFit LT cell cycle analysis software (Becton Dickinson). Results were expressed as a mean ± SD of three experiments performed in triplicate.
(§5) Figure 6 Effects of geraniin and 17-AAG on cell cycle progression. Percentage of cell cycle stages was analyzed by flow cytometry, (A) PI-stained viable Jurkat cells treated with DMSO, 0.7 µM geraniin or 10 µM 17-AAG for 24 h.

[6] = system: Jurkat cells; test: Cell cycle and hypodiploidy by flow cytometry (PI), Jurkat; type: cell-based, human; details: 24 h, geraniin 0.7 µM, 17-AAG 10 µM
Experimental: as §4, §5

[7] = system: HeLa cells; test: MTT cell viability, HeLa; type: cell-based, human; details: 24 h
Experimental: as §1, §2, §3

[8] = molecular target: T2, Hsp90α chaperone activity (Homo sapiens, UniProt P07900); test: Citrate synthase thermal-induced aggregation assay (chaperone activity); type: biochemical; details: 0.075 µM CS, 0.075 µM Hsp90α, 0.3 µM ATP, four-fold molar excess (0.3 µM) compound, 43°C
T2 construct: purchased Assay Designs (Ann Arbor, MI, USA)
Experimental: Chaperone activity was evaluated by monitoring the thermal−induced aggregation of citrate synthase (CS) (0.075 µM), as reported elsewhere, in the absence or presence of a stoichiometric amount of Hsp90α and 0.3 µM ATP, and with or without a four−fold molar excess of each testing compound. Aggregation was initiated by unfolding CS incubating the protein in 40 mM HEPES–KOH, pH 7.5 at 43°C. Aggregation was monitored by measuring light scattering at right angles with the Perkin Elmer LS 55 fluorimeter in stirred and thermostatted quartz cells. Both the emission and excitation wavelengths were set at 500 nm, while the band–pass was 2 nm. Kinetics traces reported are the averages of two separate measurements.
Figure 3 Inhibition of Hsp90α activity. ATPase activity of the chaperone was evaluated in the presence of different concentrations of geraniin, 17-AAG and HA (A). Data are reported as the residual ATPase activity (%) compared to that observed for an untreated sample. Data are the mean of three independent experiments performed in triplicate and were analyzed by t test (HA vs testing compounds): The error bar represents the standard deviation of nine measurements, while * indicates significance at P<0.01. Aggregation kinetics of citrate synthase (CS) at 43°C determined by light scattering (B). […]

[9] = SPR, immobilized Hsp90α, 25°C, single-site bimolecular model, 0.025-1 µM, read-out: KD

SMILES: O=c1c(O)c(-c2ccc(O)cc2)oc2cc(O)cc(O)c12 [Compound 2]
- Kd [1, 9]: 4.83 ± 0.515 µM

SMILES: O=c1c(O)c(-c2ccc(O)c(O)c2)oc2cc(O)ccc12 [Compound 4]
- Kd [1, 9]: 5.33 ± 0.862 µM

SMILES: COc1cc(-c2oc3cc(O)cc(O)c3c(=O)c2O)ccc1O [Compound 5]
- Kd [1]: 0.748 ± 0.045 µM

SMILES: CC(=O)Oc1cc(OC(C)=O)c2c(=O)c(OC(C)=O)c(-c3ccc(OC(C)=O)c(OC(C)=O)c3)oc2c1 [Compound 6]
- Kd [1, 9]: 2.21 ± 0.351 µM

SMILES: C=CCNC1=C2C[C@@H](C)C[C@H](OC)[C@H](O)[C@@H](C)/C=C(\C)[C@H](OC(N)=O)[C@@H](OC)/C=C\C=C(/C)C(=O)NC(=CC1=O)C2=O [Compound 17-AAG, 17-(allylamino)-17-demethoxygeldanamycin, reference compound]
- cytotoxic effects in control PBMC [2]: Minimal cytotoxic effects
- levels of hypodiploidy/necrosis [3]: 1.8±0.6%
- IC50 [4]: 9.6 ± 0.15 µM
- cell cycle arrest [5]: G1 and G2/M arrest
- percentage of cells with hypodiploid nuclei [5]: 11.6±0.5%
- cell cycle arrest [6]: G1 and G2/M arrest
- percentage of cells with hypodiploid nuclei [6]: 6.05±0.4%
- IC50 [7]: 0.2 ± 0.3 µM

Second part, the compound after the results:

- Kd [1, 9]: 8.75 ± 0.735 µM
SMILES: O=c1cc(-c2ccc(O)cc2)oc2cc(O)cc(O)c12 [Compound 19]

- Kd [1, 9]: 1.82 ± 0.242 µM
SMILES: O=C1c2c(O)cc(O)cc2OC(c2ccc(O)c(O)c2)C1O (stereo not shown) [Compound 34]

- effect on citrate synthase aggregation kinetics in the presence of Hsp90α [8]: did not perturb the CS+Hsp90α curve
- KD ([1]; SPR, immobilized Hsp90α, 25°C, single-site bimolecular model, 0.025-1 µM): No binding
SMILES: C[C@@H]1CC[C@@]2(C)C(C(=O)O)=CCC[C@@H]2[C@@]1(C)CCc1ccoc1 [HA, hardwickiic acid, reference compound]
